In patent US20240368177A1, “5-AMINO-6,8-DIHYDRO-1H-FURO[3,4-d]PYRROLO[3,2-b]PYRIDINE-2-CARBOXAMIDE DERIVATIVES AS MTA-COOPERATIVE INHIBITORS OF PRMT5” (BeiGene Switzerland GmbH, priority 2023, published 2024):

Key:
HCT116-MTAP-KO = test: Cell killing in HCT116 isogenic pair (Cell Titer-Glo viability), MTAP knock-out cells; assay type: cell-based, human; settings: 6 days incubation, 0-10 μM, * = more than 50% viability inhibition at tested concentration without a full curve
Procedure, shortened: (§1)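 HCT116 MTAP-knockout or mock-knockout (MTAP wildtype) cells in RPMI 1640 with 10% FBS were seeded overnight, then exposed to test compound at 0–10 μM final for 6 days at 37° C. Viability was measured by CellTiter-Glo luminescence and IC50 was fitted.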

HCT116-mock-RNA-KO = test: Cell killing in HCT116 isogenic pair (Cell Titer-Glo viability), mock knock-out cells with MTAP wildtype genotype; assay type: cell-based, human; settings: 6 days incubation, 0-10 μM
Procedure, shortened: as §1

Row | Structure (SMILES) | IC50 (HCT116-MTAP-KO; Homo sapiens, HCT-116, 144 h) [nM] | IC50 (HCT116-mock-RNA-KO; Homo sapiens, HCT-116, 144 h) [nM] | IC50 (HCT116-MTAP-KO) [nM] | IC50 (HCT116-mock-RNA-KO) [nM]
1 | CCN(C(=O)c1cc2nc(N)c3c(c2[nH]1)COC3)[C@@H]1COC2(CC2)c2cc(C(F)(F)F)ccc21 [Example 161, (S)-5-amino-N-ethyl-N-(7′-(trifluoromethyl)spiro[cyclopropane-1,1′-isochroman]-4′-yl)-6,8-dihydro-1H-furo[3,4-d]pyrrolo[3,2-b]pyridine-2-carboxamide] | 39 | 2800 |  | 
2 | CN(C(=O)c1cc2nc(N)c3c(c2[nH]1)COC3)[C@@H]1CCOc2cc(C(F)(F)F)ccc21 [Example 162, (R)-5-amino-N-methyl-N-(7-(trifluoromethyl)chroman-4-yl)-6,8-dihydro-1H-furo[3,4-d]pyrrolo[3,2-b]pyridine-2-carboxamide] | 186 | > 10000 |  | 
3 | CN(C(=O)c1cc2nc(N)c3c(c2[nH]1)COC3)[C@H]1COCc2cc(C(F)(F)F)cnc21 [Example 163, (R)-5-amino-N-methyl-N-(3-(trifluoromethyl)-7,8-dihydro-5H-pyrano[4,3-b]pyridin-8-yl)-6,8-dihydro-1H-furo[3,4-d]pyrrolo[3,2-b]pyridine-2-carboxamide] | > 10000 | > 10000 |  | 
4 | CN(C(=O)c1cc2nc(N)c3c(c2[nH]1)COC3)[C@@H]1COCc2cc(C(F)(F)F)cnc21 [Example 164, (S)-5-amino-N-methyl-N-(3-(trifluoromethyl)-7,8-dihydro-5H-pyrano[4,3-b]pyridin-8-yl)-6,8-dihydro-1H-furo[3,4-d]pyrrolo[3,2-b]pyridine-2-carboxamide] | 145 | > 10000 |  | 
5 | C[C@H]1OCc2c1c(N)nc1cc(C(=O)N(C)[C@@H]3COC4(CC4)c4cc(C(F)(F)F)ccc43)[nH]c21 [Example 165, (R)-5-amino-N,6-dimethyl-N—((S)-7′-(trifluoromethyl)spiro[cyclopropane-1,1′-isochroman]-4′-yl)-6,8-dihydro-1H-furo[3,4-d]pyrrolo[3,2-b]pyridine-2-carboxamide] | 17 | 2570 |  | 
6 | CCN(C(=O)c1cc2nc(N)c3c(c2[nH]1)CO[C@@H]3C)[C@@H]1COC2(CC2)c2cc(C(F)(F)F)ccc21 [Example 166, (R)-5-amino-N-ethyl-6-methyl-N—((S)-7′-(trifluoromethyl)spiro[cyclopropane-1,1′-isochroman]-4′-yl)-6,8-dihydro-1H-furo[3,4-d]pyrrolo[3,2-b]pyridine-2-carboxamide] | 19 | 2150 |  | 
7 | CN(C(=O)c1cc2nc(N)c3c(c2[nH]1)COC3)[C@H]1COC2(CC2)c2cc(C(F)(F)F)cc(F)c21 [Example 167, (R)-5-amino-N-(5′-fluoro-7′-(trifluoromethyl)spiro[cyclopropane-1,1′-isochroman]-4′-yl)-N-methyl-6,8-dihydro-1H-furo[3,4-d]pyrrolo[3,2-b]pyridine-2-carboxamide] | 697 | 3320 |  | 
8 | CN(C(=O)c1cc2nc(N)c3c(c2[nH]1)COC3)[C@@H]1COC2(CC2)c2cc(C(F)(F)F)cc(F)c21 [Example 168, (S)-5-amino-N-(5′-fluoro-7′-(trifluoromethyl)spiro[cyclopropane-1,1′-isochroman]-4′-yl)-N-methyl-6,8-dihydro-1H-furo[3,4-d]pyrrolo[3,2-b]pyridine-2-carboxamide] | 8.4 | 2110 |  | 
9 | C[C@H]1OCc2c1c(N)nc1cc(C(=O)N(C)[C@H]3COC4(CC4)c4cc(C(F)(F)F)cc(F)c43)[nH]c21 [Example 169, (R)-5-amino-N—((R)-5′-fluoro-7′-(trifluoromethyl)spiro[cyclopropane-1,1′-isochroman]-4′-yl)-N,6-dimethyl-6,8-dihydro-1H-furo[3,4-d]pyrrolo[3,2-b]pyridine-2-carboxamide] | 565 | 2110 |  | 
10 | C[C@H]1OCc2c1c(N)nc1cc(C(=O)N(C)[C@@H]3COC4(CC4)c4cc(C(F)(F)F)cc(F)c43)[nH]c21 [Example 170, (R)-5-amino-N—((S)-5′-fluoro-7-(trifluoromethyl)spiro[cyclopropane-1,1′-isochroman]-4′-yl)-N,6-dimethyl-6,8-dihydro-1H-furo[3,4-d]pyrrolo[3,2-b]pyridine-2-carboxamide] |  |  | 4.4 | 1010
11 | C[C@H]1OCc2c1c(N)nc1cc(C(=O)N(C)[C@@H]3COC4(CC4)c4cc(C5CC5)ccc43)[nH]c21 [Example 171, (R)-5-amino-N—((S)-7′-cyclopropylspiro[cyclopropane-1,1′-isochroman]-4′-yl)-N,6-dimethyl-6,8-dihydro-1H-furo[3,4-d]pyrrolo[3,2-b]pyridine-2-carboxamide] | 39 | 3030 |  | 
12 | CN(C(=O)c1cc2nc(N)c3c(c2[nH]1)COC3)[C@@H]1COC2(CC2)c2cc(C3CC3)ccc21 [Example 172, (S)-5-amino-N-(7′-cyclopropylspiro[cyclopropane-1,1′-isochroman]-4′-yl)-N-methyl-6,8-dihydro-1H-furo[3,4-d]pyrrolo[3,2-b]pyridine-2-carboxamide] | 33 | 5050 |  | 
13 | C[C@H](c1ccc(C2CC2)cc1F)N(C)C(=O)c1cc2nc(N)c3c(c2[nH]1)COC3 [Example 173, (R)-5-amino-N-(1-(4-cyclopropyl-2-fluorophenyl)ethyl)-N-methyl-6,8-dihydro-1H-furo[3,4-d]pyrrolo[3,2-b]pyridine-2-carboxamide] | 67 | 5920 |  | 
14 | C[C@@H](c1ccc(C2CC2)cc1F)N(C)C(=O)c1cc2nc(N)c3c(c2[nH]1)COC3 [Example 174, (S)-5-amino-N-(1-(4-cyclopropyl-2-fluorophenyl)ethyl)-N-methyl-6,8-dihydro-1H-furo[3,4-d]pyrrolo[3,2-b]pyridine-2-carboxamide] | 478 | 6070 |  | 
15 | CCN(C(=O)c1cc2nc(N)c3c(c2[nH]1)CO[C@@H]3C)[C@H](C)c1ccc(C2CC2)cc1F [Example 175, (R)-5-amino-N—((R)-1-(4-cyclopropyl-2-fluorophenyl)ethyl)-N-ethyl-6-methyl-6,8-dihydro-1H-furo[3,4-d]pyrrolo[3,2-b]pyridine-2-carboxamide] | 14 | 704 |  | 
16 | CCN(C(=O)c1cc2nc(N)c3c(c2[nH]1)CO[C@@H]3C)[C@@H](C)c1ccc(C2CC2)cc1F [Example 176, (R)-5-amino-N—((S)-1-(4-cyclopropyl-2-fluorophenyl)ethyl)-N-ethyl-6-methyl-6,8-dihydro-1H-furo[3,4-d]pyrrolo[3,2-b]pyridine-2-carboxamide] | 452 | 1780 |  | 
17 | CCN(C(=O)c1cc2nc(N)c3c(c2[nH]1)COC3)[C@H](C)c1ccc(C2CC2)cc1F [Example 177, (R)-5-amino-N-(1-(4-cyclopropyl-2-fluorophenyl)ethyl)-N-ethyl-6,8-dihydro-1H-furo[3,4-d]pyrrolo[3,2-b]pyridine-2-carboxamide] | 74 | 2690 |  | 
18 | CCN(C(=O)c1cc2nc(N)c3c(c2[nH]1)COC3)[C@@H](C)c1ccc(C2CC2)cc1F [Example 178, (S)-5-amino-N-(1-(4-cyclopropyl-2-fluorophenyl)ethyl)-N-ethyl-6,8-dihydro-1H-furo[3,4-d]pyrrolo[3,2-b]pyridine-2-carboxamide] | 1040 | 3270 |  | 
